Experiments:
HCT-116 [1] = assay: In vitro inhibitory activity against Paclitaxel resistant colon carcinoma HCT VM46 cell line was determined.; format: functional, cell-based; conditions: Homo sapiens
A2780 = assay: In vitro inhibitory activity against Ovarian A2780 cell line was determined.; format: functional, cell-based; conditions: Homo sapiens
[2] = target: Tubulin alpha chain (Sus scrofa) (UniProt P02550); assay: Potency to that of potency of paclitaxel in Tubulin polymerization assay; format: functional
Chain of Tubulin alpha chain (Sus scrofa) (P02550 whole entry, looked up): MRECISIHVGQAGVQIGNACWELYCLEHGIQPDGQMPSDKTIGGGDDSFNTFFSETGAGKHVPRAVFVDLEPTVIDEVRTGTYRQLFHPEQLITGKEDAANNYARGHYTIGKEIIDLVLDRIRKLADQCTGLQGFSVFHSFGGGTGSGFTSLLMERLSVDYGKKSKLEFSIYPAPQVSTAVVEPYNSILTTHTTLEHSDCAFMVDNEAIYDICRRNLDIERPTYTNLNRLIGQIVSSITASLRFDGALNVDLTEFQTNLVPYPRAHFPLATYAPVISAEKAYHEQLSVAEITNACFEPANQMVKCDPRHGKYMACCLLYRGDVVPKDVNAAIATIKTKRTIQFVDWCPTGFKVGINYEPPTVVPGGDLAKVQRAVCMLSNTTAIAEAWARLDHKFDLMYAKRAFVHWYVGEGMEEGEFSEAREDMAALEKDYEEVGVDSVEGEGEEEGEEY

HCT-116 [3] = assay: In vitro inhibitory activity against colon carcinoma HCT 116 cell line was determined.; format: functional, cell-based; conditions: Homo sapiens

SMILES | IC50 (HCT-116 [1]) [nM] | IC50 (A2780) [nM] | Ratio [2] | IC50 (HCT-116 [3]) [nM]
CC(=O)O[C@H]1C(=O)[C@@]2(C)C([C@H](OC(=O)c3ccccc3)C3(O)C[C@H](OC(=O)[C@H](O)[C@@H](NC(=O)c4ccccc4)c4ccccc4)C(C)=C1C3(C)C)[C@]1(OC(C)=O)COC1C[C@@H]2O (some centres not stated) | > 118 | 3.5 | 1 | 2.9
COCO[C@H]1CC2OC[C@@]2(OC(C)=O)C2[C@H](OC(=O)c3ccccc3)C3(O)C[C@H](OC(=O)[C@H](O)[C@@H](NC(=O)c4ccccc4)c4ccccc4)C(C)=C(C3(C)C)[C@@]3(CO3)C(=O)[C@@]21C (some centres not stated) | 14 | 1.8 | 0.7 | 1.5
CC(=O)O[C@@]12COC1C[C@H](O)[C@@]1(C)C(=O)[C@@]3(CO3)C3=C(C)[C@@H](OC(=O)[C@H](O)[C@@H](NC(=O)c4ccccc4)c4ccccc4)CC(O)([C@@H](OC(=O)c4ccccc4)C21)C3(C)C (some centres not stated) | > 121 | 2.5 | 0.5 | 2

Source: ChEMBL document CHEMBL1134759, “Synthesis of a novel C-10 spiro-epoxide of paclitaxel” (Bioorg Med Chem Lett, 2001)
